# Patent US20220372031A1, “NOVEL TRICYCLIC AROMATIC HETEROCYCLIC COMPOUND, PREPARATION METHOD THEREFOR, PHARMACEUTICAL COMPOSITION AND APPLICATION THEREOF” (SHANGHAI LONGWOOD BIOPHARMACEUTICALS CO., LTD., priority 2019, published 2022)
# Target: T1, PD-1/PD-L1 (Homo sapiens, UniProt Q9NZQ7)
# T1 construct: Recombinant human PD-L1 protein (19-238) with a His-tagged at the C-terminus; purchased AcroBiosystems PD1-H5229 (PD-L1); PD1-H5257 (PD-1)
# Experiment: PD-1/PD-L1 homogeneous time-resolved fluorescence (HTRF) binding assay
# Settings: PD-1/PD-L1 HTRF binding, ~3 nM PD1, 10 nM PD-L1, 25° C., PBS pH 7.4
# Experimental: Assays were performed in standard black 384-well polystyrene plates and a final volume was 20 μL. The inhibitor was first serially diluted with DMSO and added to the wells of the plate, followed by the addition of other reaction components. The final concentration of DMSO in the assay was 1%. Assays were performed at 25° C. in PBS buffer (pH 7.4) containing 0.05% Tween-20 and 0.1% BSA. Recombinant human PD-L1 protein (19-238) with a His-tagged at the C-terminus was purchased from AcroBiosystems (PD1-H5229). Recombinant human PD-1 protein (25-167) with an Fc tag at the C-terminus was also purchased from AcroBiosystems (PD1-H5257). The PD-L1 and PD-1 proteins were diluted in assay buffer and then […] of the solution was extracted and added to the wells of the plate. Plates were centrifuged and proteins and inhibitors were preincubated for 40 minutes. After incubation, 0.1 μl of HTRF detection buffer containing europium […] labeled anti-human IgG (PerkinElmer-AD0212), Fc-specific and anti-His SureLight®-Allophycocyanin (APC, PerkinElmer-AD0059H) conjugated antibodies was added. After centrifugation, the plates were incubated at 25° C. for 60 minutes. Data was read in a PHERAstar FS plate reader (665 nm/620 nm ratio). Final concentrations in the assay were ˜3 nM PD1, 10 nM PD-L1, 1 nM europium anti-human IgG, and 20 nM anti-His-allophycocyanin. Activity data were fitted using GraphPad Prism 5_0 software to derive IC50 values for inhibitors.
# T1 sequence (Q9NZQ7 19-238): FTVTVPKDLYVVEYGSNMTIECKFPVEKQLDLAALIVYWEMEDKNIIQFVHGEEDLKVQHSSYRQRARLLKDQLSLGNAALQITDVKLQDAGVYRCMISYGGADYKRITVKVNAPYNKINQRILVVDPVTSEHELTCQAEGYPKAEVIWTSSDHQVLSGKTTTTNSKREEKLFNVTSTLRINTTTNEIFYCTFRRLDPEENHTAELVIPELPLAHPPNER
row,SMILES,IC50
1,Cc1c(Nc2nccc3cc(CN4CC[C@@H](O)C4)cnc23)cccc1-c1cccc(-c2cc3cc4c(c([N+](=O)[O-])c3o2)CCCC4N2CC(C(=O)O)C2)c1C (stereo partly shown) [Compound 001],≤ 10 nM
2,Cc1c(Nc2nccc3cc(CN4CC[C@@H](O)C4)cnc23)cccc1-c1cccc(-c2cc3cc4c(c(C#N)c3o2)CCCC4N2CC(C(=O)O)C2)c1C (stereo partly shown) [Compound 002],≤ 10 nM
3,COc1nc(-c2cccc(-c3cccc(-c4cc5cc6c(c(C#N)c5o4)CCC6N4CC[C@@H](C(=O)O)C4)c3C)c2C)cnc1CN1CC[C@@H](O)C1 (stereo partly shown) [Compound 003],≤ 10 nM
4,Cc1c(Nc2nccc3cc(CN4CC[C@@H](O)C4)cnc23)cccc1-c1cccc(-c2nc3cc4c(c(C#N)c3o2)CCC4N2CC[C@@H](C(=O)O)C2)c1C (stereo partly shown) [Compound 004],≤ 10 nM
5,N#Cc1c2c(cc3nc(-c4cccc(-c5cccc(Nc6nccc7cc(CN8CC[C@@H](O)C8)cnc67)c5Cl)c4Cl)oc13)C(N1CC[C@@H](C(=O)O)C1)CC2 (stereo partly shown) [Compound 005],≤ 10 nM
6,Cc1c(Nc2nccc3cc(CN4CC[C@@H](O)C4)cnc23)cccc1-c1cccc(-c2nc3cc4c(c(C#N)c3o2)CC[C@@H]4N2CC[C@@H](C(=O)O)C2)c1C [Compound 006],≤ 10 nM
7,Cc1c(Nc2nccc3cc(CN4CC[C@@H](O)C4)cnc23)cccc1-c1cccc(-c2nc3cc4c(c(C#N)c3o2)CC[C@H]4N2CC[C@@H](C(=O)O)C2)c1C [Compound 007],≤ 10 nM
8,COc1nc(-c2cccc(-c3cccc(-c4nc5cc6c(c(C#N)c5o4)CCC6N4CC[C@@H](C(=O)O)C4)c3C)c2C)ccc1CN1CC[C@@H](O)C1 (stereo partly shown) [Compound 008],≤ 10 nM
9,Cc1c(Nc2nccc3cc(CN4CC[C@@H](O)C4)cnc23)cccc1-c1cccc(-c2nc3cc4c(c(C#N)c3o2)CCC4N2CC[C@@H](C(=O)NS(=O)(=O)C3CC3)C2)c1C (stereo partly shown) [Compound 009],≤ 10 nM
10,Cc1c(Nc2nccc3cc(CN4CC[C@@H](O)C4)cnc23)cccc1-c1cccc(-c2nc3cc4c(c(C#N)c3o2)CCC4N2CC[C@@H](C(N)=O)C2)c1C (stereo partly shown) [Compound 010],≤ 10 nM
11,N#Cc1c2c(cc3nc(-c4cccc(-c5cccc(Nc6nccc7cc(CN8CC[C@@H](O)C8)cnc67)c5Cl)c4Cl)oc13)[C@@H](NCCC(=O)O)CC2 [Compound 011],≤ 10 nM
12,N#Cc1c2c(cc3nc(-c4cccc(-c5cccc(Nc6nccc7cc(CN8CC[C@@H](O)C8)cnc67)c5Cl)c4Cl)oc13)[C@@H](NCC(=O)O)CC2 [Compound 012],≤ 10 nM
13,CN(CC(=O)O)[C@H]1CCc2c1cc1nc(-c3cccc(-c4cccc(Nc5nccc6cc(CN7CC[C@@H](O)C7)cnc56)c4Cl)c3Cl)oc1c2C#N [Compound 013],≤ 10 nM
14,Cc1c(Nc2nc(N)nc3cc(CN4CC[C@@H](O)C4)cnc23)cccc1-c1cccc(-c2nc3cc4c(c(C#N)c3o2)CC[C@H]4N2CC[C@@H](C(=O)O)C2)c1C [Compound 015],≤ 10 nM
15,Cc1c(Nc2nc(C(F)F)nc3cc(CN4CC[C@@H](O)C4)cnc23)cccc1-c1cccc(-c2nc3cc4c(c(C#N)c3o2)CC[C@H]4N2CC[C@@H](C(=O)O)C2)c1C [Compound 016],≤ 10 nM
16,Cc1c(Nc2nccc3cc(CN4CC[C@@H](O)C4)cnc23)cccc1-c1cccc(-c2cc3cc4c(c(C#N)c3o2)CCCC4N2CC[C@@H](C(=O)O)C2)c1C (stereo partly shown) [Compound 017],≤ 10 nM
17,Cc1c(Nc2nccc3cc(CN4CC[C@@H](O)C4)cnc23)cccc1-c1cccc(-c2cc3cc4c(c(C#N)c3o2)CCC4N2CC[C@@H](C(=O)O)C2)c1C (stereo partly shown) [Compound 018],≤ 10 nM
18,Cc1c(Nc2nccc3cc(CN4CC[C@@H](O)C4)cnc23)cccc1-c1cccc(-c2cc3cc4c(c(C#N)c3o2)CCCC4N2CC[C@@H](O)C2)c1C (stereo partly shown) [Compound 019],≤ 10 nM
19,Cc1c(Nc2nccc3cc(CN4CC[C@@H](O)C4)cnc23)cccc1-c1cccc(-c2cc3cc4c(c(C#N)c3o2)CCC4N2CC[C@@H](O)C2)c1C (stereo partly shown) [Compound 020],≤ 10 nM
20,N#Cc1c2c(cc3cc(-c4cccc(-c5cccc(Nc6nccc7cc(CN8CC[C@@H](O)C8)cnc67)c5Cl)c4Cl)oc13)C(N1CC[C@@H](C(=O)O)C1)CC2 (stereo partly shown) [Compound 021],≤ 10 nM
21,Cc1c(Nc2nccc3cc(CN4CC[C@@H](O)C4)cnc23)cccc1-c1cccc(-c2cc3cc4c(c(C#N)c3o2)CC[C@@H]4N)c1C [Compound 022],≤ 10 nM
22,Cc1c(Nc2nccc3cc(CN4CC[C@@H](O)C4)cnc23)cccc1-c1cccc(-c2cc3cc4c(c(C#N)c3o2)CCCC4NCCO)c1C (stereo partly shown) [Compound 023],≤ 10 nM

row,SMILES,IC50
1,Cc1c(Nc2nccc3cc(CN4CC[C@@H](O)C4)cnc23)cccc1-c1cccc(-c2nc3cc4c(c(C#N)c3o2)CCC4N2CC[C@@H](C(=O)O)C2)c1Cl (stereo partly shown) [Compound 026],≤ 10 nM
2,Cc1c(-c2nc3cc4c(c(C#N)c3o2)CCC4N2CC[C@@H](C(=O)O)C2)cccc1-c1cccc(Nc2nccc3cc(CN4CC[C@@H](O)C4)cnc23)c1Cl (stereo partly shown) [Compound 027],≤ 10 nM
3,Cc1c(Nc2nccc3cc(CN4CC[C@@H](O)C4)cnc23)cccc1-c1cccc(-c2nc3cc4c(c(C#N)c3o2)CCC4NCCC(=O)O)c1C (stereo partly shown) [Compound 028],≤ 10 nM
4,N#Cc1c2c(cc3nc(-c4cccc(-c5cccc(Nc6nccc7cc(CN8CC[C@@H](O)C8)cnc67)c5Cl)c4Cl)oc13)[C@@H](N1CC[C@@H](C(=O)O)C1)CC2 [Compound 029],≤ 10 nM
5,N#Cc1c2c(cc3nc(-c4cccc(-c5cccc(Nc6nccc7cc(CN8CC[C@@H](O)C8)cnc67)c5Cl)c4Cl)oc13)[C@H](N1CC[C@@H](C(=O)O)C1)CC2 [Compound 030],≤ 10 nM
6,N#Cc1c2c(cc3nc(-c4cccc(-c5cccc(Nc6nccc7cc(CN8CC[C@@H](O)C8)cnc67)c5Cl)c4Cl)oc13)[C@H](NCCC(=O)O)CC2 [Compound 031],≤ 10 nM
7,Cc1c(Nc2nccc3cc(CN4CC[C@@H](O)C4)cnc23)cccc1-c1cccc(-c2nc3cc4c(c(C#N)c3o2)CC[C@H]4N2CC[C@@H](C(=O)NS(=O)(=O)C3CC3)C2)c1C [Compound 032],≤ 10 nM
8,COc1nc(-c2cccc(-c3cccc(-c4nc5cc6c(c(C#N)c5o4)CC[C@H]6N4CC[C@@H](C(=O)NS(=O)(=O)C5CC5)C4)c3C)c2C)ccc1CN1CC[C@@H](O)C1 [Compound 034],≤ 10 nM
9,COc1nc(-c2cccc(-c3cccc(-c4nc5cc6c(c(C#N)c5o4)CC[C@H]6N4CC[C@@H](C(=O)NS(=O)(=O)C5CC5)C4)c3Cl)c2Cl)ccc1CN1CC[C@@H](O)C1 [Compound 035],≤ 10 nM
10,COc1nc(-c2cccc(-c3cccc(-c4nc5cc6c(c(C#N)c5o4)CC[C@H]6N4CC[C@@H](C(=O)NS(=O)(=O)C5CC5)C4)c3C)c2C)cnc1CN1CC[C@@H](O)C1 [Compound 036],≤ 10 nM
11,COc1nc(-c2cccc(-c3cccc(-c4nc5cc6c(c(C#N)c5o4)CC[C@H]6N4CC[C@@H](C(=O)NS(=O)(=O)C5CC5)C4)c3Cl)c2Cl)cnc1CN1CC[C@@H](O)C1 [Compound 037],≤ 10 nM
12,COc1nc(-c2cccc(-c3cccc(-c4nc5cc6c(c(C#N)c5o4)CC[C@@H]6NCCC(=O)O)c3Cl)c2Cl)cnc1CN1CC[C@@H](O)C1 [Compound 038],≤ 10 nM
13,COc1nc(-c2cccc(-c3cccc(-c4nc5cc6c(c(C#N)c5o4)CC[C@H]6NCCC(=O)O)c3Cl)c2Cl)cnc1CN1CC[C@@H](O)C1 [Compound 039],≤ 10 nM
14,Cc1c(Nc2nccc3cc(CN4CC[C@@H](O)C4)cnc23)cccc1-c1cccc(-c2nc3cc4c(c(C#N)c3o2)CC[C@H]4N2CC[C@@H](C(=O)O)C2)c1Cl [Compound 040],≤ 10 nM
15,N#Cc1c2c(cc3nc(-c4cccc(-c5cccc(Nc6nccc7cc(CN8CC[C@@H](O)C8)cnc67)c5Cl)c4Cl)oc13)[C@@H](NCC(=O)NS(=O)(=O)C1CC1)CC2 [Compound 042],≤ 10 nM
16,CCOC(=O)CN[C@H]1CCc2c1cc1nc(-c3cccc(-c4cccc(Nc5nccc6cc(CN7CC[C@@H](O)C7)cnc56)c4Cl)c3Cl)oc1c2C#N [Compound 043],10 to 100 nM
17,Cc1c(-c2nc3cc4c(c(C#N)c3o2)CC[C@H]4N2CC[C@@H](C(=O)O)C2)cccc1-c1cccc(Nc2nc(C(F)F)nc3cc(CN4CC[C@@H](O)C4)cnc23)c1Cl [Compound 081],≤ 10 nM
18,Cc1c(Nc2nc(C(F)F)nc3cc(CN4CC[C@@H](O)C4)cnc23)cccc1-c1cccc(-c2nc3cc4c(c(C#N)c3o2)CC[C@H]4N2CC[C@@H](C(=O)O)C2)c1Cl [Compound 082],≤ 10 nM
19,N#Cc1c2c(cc3nc(-c4cccc(-c5cccc(Nc6nc(C(F)F)nc7cc(CN8CC[C@@H](O)C8)cnc67)c5Cl)c4Cl)oc13)[C@H](N1CC[C@@H](C(=O)O)C1)CC2 [Compound 083],≤ 10 nM
20,COc1nc(-c2cccc(-c3cccc(-c4nc5cc6c(c(C#N)c5o4)CC[C@H]6N4CC[C@@H](C(=O)NS(=O)(=O)C5(C)CC5)C4)c3C)c2C)cnc1CN1CC[C@@H](O)C1 [Compound 084],≤ 10 nM
21,COc1nc(-c2cccc(-c3cccc(-c4nc5cc6c(c(C#N)c5o4)CC[C@H]6N4CC[C@@H](C(=O)NS(=O)(=O)C5(C)CC5)C4)c3Cl)c2Cl)cnc1CN1CC[C@@H](O)C1 [Compound 086],≤ 10 nM
